Experimental data from US20170273985A1, “TRICYCLIC DERIVATIVE” (Sunovion Pharmaceuticals Inc., priority 2014, published 2017).

Biological target: PDE1B (Homo sapiens, UniProt Q01064)
Experiment: In vitro HTRF PDE1 inhibition assay (PDE1B)
Format: biochemical
Settings: Table 22
Description: An exemplary procedure for the in vitro Homogenous Time Resolved Fluorescence assay, which can be used to determine the inhibitory action of compounds of the invention toward PDE1 or its isoforms, follows. The HTRF PDE1 assay utilized the HTRF (Homogenous Time Resolved Fluorescence) technology, which is based on the competition between unlabeled cyclic nucleotide and cyclic nucleotide labeled with XL665 for the binding to cyclic nucleotide-specific antibody labeled with cryptate. The HTRF signal is thus inversely proportional to the concentration of cyclic nucleotide being measured. Since phosphodiesterases break down cyclic nucleotides the HTRF signal was used to determine PDE activity. The Cisbio cGMP HTRF assay kit (Cat no: 62GM2PEC) was utilized. Cyclic GMP was diluted to 200 nM in HTRF assay buffer (1 mM CaCl2, 10 mM MgCl2, 10 mM Tris-HCl, 0.1% BSA, pH 7.4). 10 μl of compound or DMSO was diluted in 200 nM cyclic GMP solution and added to wells of a 96 well white plate to give 100 nM cyclic GMP in 1% DMSO final concentration. PDE (1A3, 1B or IC) was diluted to 2× working concentration in HTRF assay buffer with 2 μg/ml calmodulin, and 10 μl was added to initiate the reaction. The plate was then incubated for 45 minutes at 37° C. d2-Labelled cyclic GMP and anti-cGMP cryptate were diluted in 50 mM phosphate buffer, 0.8 M KF, 1% Triton X100, 0.2% BSA, pH 7.0. Following incubation 10 μl d2-cGMP, then 10 μl anti cGMP cryptate were added to each well and the plate was incubated for 45 minutes at room temperature. The plate was then read on Perkin Elmer Victor at 2 different FRET readings ex/emm 340 nm/665 nm and 340 nm/615 nm. Compounds having an IC50 of <1 μM, are denoted as +++. Compounds having an IC50 of 1−10 μM, are denoted as ++. Compounds having an IC50 of 10-100 μM, are denoted as +.

Compound	IC50
2-(4-chlorophenyl)-8-isopropyl-2H-imidazo[1,5-f]oxazolo[2,3-c][1,2,4]triazin-5(3H)-one [Example 133]	< 1000 nM
CCCN1c2nn3c(C4CCOCC4)ncc3c(=O)n2CC1c1ccc(OC)cc1 (racemic) [Example 67]	< 1000 nM
CN1c2nn3c(C4CCOCC4)ncc3c(=O)n2CC1c1ccc(Cl)cc1 (racemic) [Example 68]	< 1000 nM
CCc1ccc(C2Cn3c(nn4c(C(C)C)ncc4c3=O)N2CC)cn1 (single isomer, unassigned) [Example 94]	< 1000 nM
CC(C)c1ncc2c(=O)n3c(nn12)N(Cc1ccccc1)CCC3 [Example 2, 1-Benzyl-9-isopropyl-1,2,3,4-tetrahydro-6H-imidazo[5,1-f]pyrimido[2,1-c][1,2,4]triazin-6-one]	< 1000 nM
CC(C)c1ncc2c(=O)n3c(nn12)N(CC1CCOCC1)C(C)CC3 (centres unmarked) [Example 3, 11-Methyl-10-(oxan-4-ylmethyl)-6-(propan-2-yl)-1,5,7,8,10-pentaazatricyclo[7,4,0,0,3,7]trideca-3,5,8-trien-2-one]	< 1000 nM
CC(C)c1ncc2c(=O)n3c(nn12)N(CCC1CCOCC1)CC3 [Example 4]	< 1000 nM
CC(C)c1ncc2c(=O)n3c(nn12)N(CCCC1CCOCC1)CC3 [Example 5]	< 1000 nM
COCCCN1CCn2c1nn1c(C(C)C)ncc1c2=O [Example 6]	< 1000 nM
COCCCCN1CCn2c1nn1c(C(C)C)ncc1c2=O [Example 7]	< 1000 nM
COCCCCCN1CCn2c1nn1c(C(C)C)ncc1c2=O [Example 8]	< 1000 nM
CC(C)c1ncc2c(=O)n3c(nn12)N(CCc1ccccn1)CC3 [Example 10]	< 1000 nM
CC(C)c1ncc2c(=O)n3c(nn12)N(CCCc1cccnc1)CC3 [Example 12]	< 1000 nM
CC(C)c1ncc2c(=O)n3c(nn12)N(CCCc1ccncc1)CC3 [Example 13]	< 1000 nM
CC(C)c1ncc2c(=O)n3c(nn12)N(C)CCC3 [Example 14]	< 1000 nM
CCCN1CCCn2c1nn1c(C(C)C)ncc1c2=O [Example 15]	< 1000 nM
CCCCN1CCCn2c1nn1c(C(C)C)ncc1c2=O [Example 17]	< 1000 nM
CCCCCN1CCCn2c1nn1c(C(C)C)ncc1c2=O [Example 18]	< 1000 nM
CC(C)CCN1CCCn2c1nn1c(C(C)C)ncc1c2=O [Example 19]	< 1000 nM
CC(C)c1ncc2c(=O)n3c(nn12)N(CCC1CC1)CCC3 [Example 20]	< 1000 nM
CC(C)c1ncc2c(=O)n3c(nn12)N(CCC1CCC(F)(F)CC1)CCC3 [Example 21]	< 1000 nM
CC(C)c1ncc2c(=O)n3c(nn12)N(CCOC(F)(F)F)CCC3 [Example 22]	< 1000 nM
COCCN1CCCn2c1nn1c(C(C)C)ncc1c2=O [Example 23]	< 1000 nM
CC(C)c1ncc2c(=O)n3c(nn12)N(CCN1CCOCC1)CCC3 [Example 26]	< 1000 nM
CC(C)c1ncc2c(=O)n3c(nn12)N(CCCN1CCOCC1)CCC3 [Example 27]	< 1000 nM

Compound	IC50
CC(C)c1ncc2c(=O)n3c(nn12)N(CC(=O)N1CCOCC1)CCC3 [Example 28]	1000 to 10000 nM
CC(C)c1ncc2c(=O)n3c(nn12)N(CCCC1CCOCC1)CCC3 [Example 29]	< 1000 nM
CC(C)c1ncc2c(=O)n3c(nn12)N(Cc1ccc(Cl)cc1)CCC3 [Example 31]	< 1000 nM
CC(C)c1ncc2c(=O)n3c(nn12)N(Cc1cccc(C(F)(F)F)c1)CCC3 [Example 32]	< 1000 nM
CC(C)c1ncc2c(=O)n3c(nn12)N(Cc1cccc(Cl)c1)CCC3 [Example 33]	< 1000 nM
CC(C)c1ncc2c(=O)n3c(nn12)N(Cc1ccc(C(F)(F)F)cc1)CCC3 [Example 34]	< 1000 nM
CC(C)c1ncc2c(=O)n3c(nn12)N(Cc1ccncc1)CCC3 [Example 35]	< 1000 nM
CC(C)c1ncc2c(=O)n3c(nn12)N(Cc1cccnc1)CCC3 [Example 36]	< 1000 nM
CC(C)c1ncc2c(=O)n3c(nn12)N(Cc1cccc(C#N)c1)CCC3 [Example 37]	< 1000 nM
CC(C)c1ncc2c(=O)n3c(nn12)N(CCc1ccc(C#N)cc1)CCC3 [Example 38]	< 1000 nM
CC(C)c1ncc2c(=O)n3c(nn12)N(CCCc1ccncc1)CCC3 [Example 39]	< 1000 nM
CC(C)c1ncc2c(=O)n3c(nn12)N(CCCc1cccnc1)CCC3 [Example 40]	< 1000 nM
CC(C)c1ncc2c(=O)n3c(nn12)N(CCc1ccncc1)CCC3 [Example 41]	< 1000 nM
CC(C)c1ncc2c(=O)n3c(nn12)N(CCc1cccnc1)CCC3 [Example 42]	< 1000 nM
CC(C)c1ncc2c(=O)n3c(nn12)N(CCc1ccccc1F)CCC3 [Example 43]	< 1000 nM
CC(C)c1ncc2c(=O)n3c(nn12)N(CCc1cccc(F)c1)CCC3 [Example 44]	< 1000 nM
CC(C)c1ncc2c(=O)n3c(nn12)N(CCc1ccc(F)cc1)CCC3 [Example 45]	< 1000 nM
CC(C)c1ncc2c(=O)n3c(nn12)N(CCCc1ccccc1F)CCC3 [Example 46]	< 1000 nM
CC(C)c1ncc2c(=O)n3c(nn12)N(CCCc1ccc(F)cc1)CCC3 [Example 47]	< 1000 nM
COc1ccccc1CCCN1CCCn2c1nn1c(C(C)C)ncc1c2=O [Example 48]	< 1000 nM
COc1cccc(CCCN2CCCn3c2nn2c(C(C)C)ncc2c3=O)c1 [Example 49]	< 1000 nM
COc1ccc(CCCN2CCCn3c2nn2c(C(C)C)ncc2c3=O)cc1 [Example 50]	1000 to 10000 nM
CC(C)c1ncc2c(=O)n3c(nn12)N(CC1CCOCC1)CCCC3 [Example 51]	< 1000 nM
CC(C)c1ncc2c(=O)n3c(nn12)N(Cc1ccc(C#N)cc1)CCCC3 [Example 52]	< 1000 nM
CCCCN1CCn2c1nn1c(C3CCOCC3)ncc1c2=O [Example 53]	< 1000 nM

Compound	IC50
O=c1c2cnc(C3CCOCC3)n2nc2n1CCN2CCC1CCCC1 [Example 54]	< 1000 nM
O=c1c2cnc(C3CCOCC3)n2nc2n1CCN2CCc1ccc(F)cc1 [Example 57]	< 1000 nM
N#Cc1ccc(CCN2CCn3c2nn2c(C4CCOCC4)ncc2c3=O)cc1 [Example 58]	< 1000 nM
N#Cc1cccc(CN2CCCn3c2nn2c(C4CCOCC4)ncc2c3=O)c1 [Example 60]	< 1000 nM
N#Cc1ccc(CN2CCCn3c2nn2c(C4CCOCC4)ncc2c3=O)cc1 [Example 61]	1000 to 10000 nM
O=c1c2cnc(C3CCOCC3)n2nc2n1CCCN2CCc1ccccc1 [Example 62]	< 1000 nM
O=c1c2cnc(C3CCOCC3)n2nc2n1CCCN2CCCc1ccccc1 [Example 63]	< 1000 nM
CC1CN(Cc2ccc(C#N)cc2)c2nn3c(C(C)C)ncc3c(=O)n2C1 (centres unmarked) [Example 65]	< 1000 nM
CCCN1c2nn3c(C4CCOCC4)ncc3c(=O)n2CC[C@@H]1c1ccc(Cl)cc1 [Example 71]	< 1000 nM
CC(C)c1ncc2c(=O)n3c(nn12)N(C)C(c1ccc(Cl)cc1)CC3 (centres unmarked) [Example 72]	< 1000 nM
CC(C)n1ncc2c(=O)n3c(nc21)N(CC1CCOCC1)CC3 [Example 73]	< 1000 nM
CC(C)n1ncc2c(=O)n3c(nc21)N(Cc1ccc(C#N)cc1)CC3 [Example 74]	< 1000 nM
CC(C)n1ncc2c(=O)n3c(nc21)N(Cc1ccc(-c2cccc(F)n2)cc1)CC3 [Example 76]	< 1000 nM
CC(C)CN1CCCn2c1nc1c(cnn1C(C)C)c2=O [Example 77]	< 1000 nM
CC(C)n1ncc2c(=O)n3c(nc21)N(Cc1ccc(C(F)(F)F)cc1)CCC3 [Example 80]	< 1000 nM
CC(C)c1ncnc2c(=O)n3c(nc12)N(Cc1ccc(C#N)cc1)CC3 [Example 82]	< 1000 nM
CC(C)c1ncnc2c(=O)n3c(nc12)N(Cc1ccc(C(F)(F)F)cc1)CC3 [Example 83]	< 1000 nM
CC(C)c1ncc2c(=O)n3c(nn12)N(C)[C@@H](c1ccc(Cl)cn1)C3 [Example 84, (R)-2-(5-Chloropyridin-2-yl)-8-isopropyl-1-methyl-2,3-dihydrodiimidazo[2,1-c:1′,5′-f][1,2,4]triazin-5(1H)-one]	< 1000 nM
CC(C)c1ncc2c(=O)n3c(nn12)N(C)[C@H](c1ccc(Cl)cn1)C3 [Example 85, (S)-2-(5-Chloropyridin-2-yl)-8-isopropyl-1-methyl-2,3-dihydrodiimidazo[2,1-c:1′,5′-f][1,2,4]triazin-5(1H)-one]	< 1000 nM
COc1ccc(C2Cn3c(nn4c(C5CCOCC5)ncc4c3=O)N2C)cc1 (centres unmarked) [Example 86]	< 1000 nM
COc1ccc(C2Cn3c(nn4c(C5CCOCC5)ncc4c3=O)N2C)cc1 (centres unmarked) [Example 87]	1000 to 10000 nM
CCc1ccc(C2Cn3c(nn4c(C5CCOCC5)ncc4c3=O)N2CC)cn1 (centres unmarked) [Example 88]	< 1000 nM
CCc1ccc([C@@H]2Cn3c(nn4c(C5CCOCC5)ncc4c3=O)N2CC)cn1 [Example 89]	1000 to 10000 nM

Same assay, conditions: Table 25

Compound	IC50
O=c1c2cnc(C3CCOCC3)n2nc2n1CCN2CC1CC1(F)F (racemic) [Example 176]	< 1000 nM
